This passage reports RP-LC retention time results from the METLIN SMRT retention time set (Domingo-Almenara et al. 2019).

A short description of the data set: gradient 5% acetonitrile 3 min, to 50% in 2 min, to 85% in 15 min, held 3 min, 100 µL/min. The settings on record: column: Zorbax Extend-C18 2.1 x 50 mm; eluents: water / acetonitrile, 0.1% formic acid. In outline: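 Data were gathered over 3 months by HPLC coupled to a quadrupole time-of-flight mass spectrometer, operated in positive and negative ionization mode. Mixtures of ~100 pure standards ran on a Zorbax Extend-C18 column (2.1 × 50 mm, 1.8 μm) at 100 μL/min, with water and acetonitrile each containing 0.1% formic acid and dead and dwell volumes of 40 μL and 900 μL. Retention time was read from adduct peaks picked by computer and checked manually.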
In turn, `Cc1nn2c(CNC(=O)c3ccc(C)c(C)c3)c(C)nc2s1` came in with an RP-LC retention time of 650 s.

In the case of `COc1ccccc1-c1noc(-c2nn(-c3ccc(F)c(F)c3)ccc2=O)n1`, the RP-LC retention time is 807 s.

For `Cc1cc(C)c(S(=O)(=O)N(CC(=O)N2CCNCC2)CC2CCCO2)cc1C` (stereo not drawn), the RP-LC retention time was 704 s.

`O=C(CN1C(=O)C2CCCCN2c2ccc(C(=O)N3CCCC3)cc21)NCCc1ccco1` (stereo not drawn) gave an RP-LC retention time of 664 s.

`CN(C)c1ncncc1N1CCC(C(=O)N2CCOCC2)CC1` showed an RP-LC retention time of 567 s.

In the case of `CCOc1ccc(S(=O)(=O)NCCC(O)C(C)(C)C)cc1F` (stereo not drawn), the RP-LC retention time was determined as 826 s.

As for `O=C(CCCc1nnc2c(=O)n(-c3ccc(F)cc3)ccn12)NCCc1c[nH]c2ccccc12`, the RP-LC retention time was determined as 699 s.

`O=C(Cn1c(=O)cc(-c2nc(C3CC3)no2)c2ccccc21)NCc1cccc(Cl)c1`: the RP-LC retention time amounted to 979 s.

`CC(NC(=O)c1cc(-c2ccc(F)cc2)cn1C)c1ccccn1` (stereo not drawn) gave an RP-LC retention time of 722 s.

In turn, `Cc1cnn(CC(=O)N2CC(n3cc(COc4ccc(F)cc4)nn3)C2)c1` came in with an RP-LC retention time of 714 s.

`O=C(NC1CCCCCC1)C1CCCN(S(=O)(=O)c2c[nH]c(C(=O)N3CCCC3)c2)C1` (stereo not drawn): the RP-LC retention time came to 815 s.

Take `CCOc1cccc(-c2noc(Cn3ccn4nc(-c5ccc(C)c(C)c5)cc4c3=O)n2)c1`: the RP-LC retention time is 1220 s.

`CC1(C)CC(=O)C2=C(C1)Nc1ccccc1N(C(=O)c1ccccc1)C2c1ccco1` (stereo not drawn) gave an RP-LC retention time of 825 s.

In the case of `Cc1cc(C)cc(-c2nnc(Cc3nc(-c4ccncc4)no3)o2)c1`, the RP-LC retention time stood at 886 s.

In the case of `CC(C)CNC(=O)C1CCN(C(=O)c2ncn3c2COC(c2ccccc2)C3)CC1` (stereo not drawn), the RP-LC retention time was 702 s.

Turning to `O=C(C1CC(=O)N(c2ccccc2)C1)N1CCN(c2ccc(-c3noc(C4CCC4)n3)cc2)CC1` (stereo not drawn), the RP-LC retention time was found to be 970 s.

Compound `O=[N+]([O-])c1c(NCCCO)cc(NCc2ccc3c(c2)OCO3)c2nonc12` returned an RP-LC retention time of 668 s.

The compound `NC(=O)c1ccc2c(c1)CCCN2C(=O)c1cccc(Cl)c1` had an RP-LC retention time of 724 s.

Consider `Cc1ccccc1NC(=O)C(=O)c1ccc[nH]1`, for which the RP-LC retention time came to 862 s.

Compound `COCCCn1c(=O)c2ccccc2n(Cc2nc(-c3ccccc3)no2)c1=O` yielded an RP-LC retention time of 994 s.

Consider `CC(=O)Oc1ccc2c(=O)c(Oc3ccc([N+](=O)[O-])cc3)c(C)oc2c1`, for which the RP-LC retention time was 854 s.

For the compound `COc1cccc(-c2nnc(Cc3nc(-c4cccc(Cl)c4)no3)o2)c1`, the RP-LC retention time worked out at 1090 s.

For the compound `CCC1CCCCN1Cc1ccc(CNC(=O)c2c(C)oc3c2C2=NCCN2C=N3)o1` (stereo not drawn), the RP-LC retention time was found to be 710 s.

As for `CC1=C(C(=O)N2CCOCC2)C(c2cc(Br)ccc2F)C2=C(CCCC2=O)N1` (stereo not drawn), the RP-LC retention time is 659 s.

Consider `O=C(O)/C=C/c1ccc(Cn2ccnc2)cc1`, for which the RP-LC retention time was found to be 612 s.

The compound `O=C(Cn1nc2c(c1NC(=O)c1c(F)cccc1Cl)CSC2)NCC1CCCO1` (stereo not drawn) registered an RP-LC retention time of 671 s.

`Cc1ccc(Oc2nccn3c(=O)n(CC(=O)Nc4ccc(C)c(Cl)c4)nc23)cc1` displayed an RP-LC retention time of 1010 s.

Take `Cc1ccc2[nH]cc(CCN3CC(C(=O)N4CCOCC4)CC3=O)c2c1` (stereo not drawn): the RP-LC retention time amounted to 679 s.

Turning to `Cc1ccc(CN2CC(CO)C3(CCNCC3)C2)cc1C` (stereo not drawn), the RP-LC retention time came out at 551 s.

`CC(C)CC(=O)Nc1nnc(SCc2nnc(-c3ccc4c(c3)OCO4)o2)s1` yielded an RP-LC retention time of 854 s.

Turning to `CC(C)c1nn2c(S(=O)(=O)NCc3cccs3)c(C(C)C)nc2s1`, the RP-LC retention time came to 966 s.

In turn, `Cc1ccc(-c2cc(N3CCN(C(=O)c4cc(C)cc(C)c4)CC3)ncn2)cc1` had an RP-LC retention time of 731 s.

`Cc1nc2cc(-c3noc(COc4ccccc4)n3)ccc2o1` showed an RP-LC retention time of 1030 s.

In the case of `CC1CCN(S(=O)(=O)c2cc(-c3nnc(C4CC4)o3)co2)CC1`, the RP-LC retention time came out at 945 s.

In turn, `CCc1ccccc1NC(=O)NCCNC(=O)c1ccc(NC(=O)C2CC2)cc1` showed an RP-LC retention time of 657 s.

The compound `COCCN1C(=O)CCc2cc(NS(=O)(=O)c3cc(C)c(C)cc3C)ccc21` yielded an RP-LC retention time of 833 s.

Take `Cc1cc(-n2cc(C(=O)N3CCC(NC(=O)Cc4cccs4)CC3)nn2)ccc1F`: the RP-LC retention time worked out at 746 s.

Compound `O=C(CN1CCN(Cc2ccc(F)cc2)C1=O)NCc1ccc(N2CCOCC2)cc1` showed an RP-LC retention time of 712 s.

Consider `Cc1cccc(N2CCN(c3ccc4nnc(CCc5nc(-c6ccncc6)no5)n4n3)CC2)c1`, for which the RP-LC retention time was determined as 846 s.

In the case of `CC(C)n1c(=O)oc2cc(-c3noc(-c4cccc(Cl)c4)n3)ccc21`, the RP-LC retention time was determined as 1180 s.

`CCN1C(=O)COc2ccc(-c3nc(NC(C)=O)sc3C)cc21` had an RP-LC retention time of 759 s.

As to `Cn1c(=O)c(N2CCCC(C(=O)NCCc3c[nH]c4ccc(Cl)cc34)C2)nc2ccccc21` (stereo not drawn), the RP-LC retention time is 960 s.

`COCCCNC(=O)CN1C(=O)CCn2nc(-c3cn(C)c4ccccc34)cc21` had an RP-LC retention time of 685 s.

`CC1CCCCN1S(=O)(=O)c1cc(-c2nnc(C3CCCC3)o2)co1` (stereo not drawn): the RP-LC retention time is 1060 s.

For the compound `CCCN1CCN(C(=O)C2CCCN(c3nnc(C)c4c(C)n(-c5ccccc5)nc34)C2)CC1` (stereo not drawn), the RP-LC retention time amounted to 582 s.

`CCOC(=O)C1=C(CN2CCC(Cc3ccccc3)CC2)NC(=O)NC1c1cccs1` (stereo not drawn) registered an RP-LC retention time of 884 s.

As to `O=C(Nc1cnc2c(c1)CCC2)C1CCCC1`, the RP-LC retention time worked out at 522 s.

`CC(=O)c1cccc(NC(=O)Cn2c(N3CCc4ccccc4C3)nc(C)cc2=O)c1` gave an RP-LC retention time of 723 s.

Regarding `CCSc1nnc(-c2nn(C)c3c2CN(S(=O)(=O)c2ccc(F)c(C)c2)CC3)n1CC`, the RP-LC retention time is 978 s.

In the case of `CCCS(=O)(=O)c1nc2ccc(NS(=O)(=O)c3ccc4c(c3)oc(=O)n4C)cc2s1`, the RP-LC retention time came out at 847 s.

`Cc1cccc(-c2nc(C3CCN(S(=O)(=O)c4cc(C)ccc4C)CC3)no2)c1` displayed an RP-LC retention time of 1320 s.

`Cc1cc(S(=O)(=O)N2CCC3(CC2)NCCCN=C3NC2CCCC2)ccc1F` showed an RP-LC retention time of 768 s.

`O=C(Nc1ccccc1)c1cnn2c1CCCC2` yielded an RP-LC retention time of 699 s.

As for `Cn1nc(C(=O)N2CCCCC2)c2c1CCN(C(=O)CCC(=O)NCCN1CCCCC1)C2`, the RP-LC retention time is 586 s.

In the case of `CCOC(=O)c1ccccc1NC(=O)Cn1nc2c(Oc3ccccc3)nccn2c1=O`, the RP-LC retention time came out at 1000 s.

`Nc1nnc(SCc2nnc(-c3ccc4c(c3)OCO4)o2)s1` yielded an RP-LC retention time of 630 s.

In turn, `O=C(Nc1ccc(F)cc1)C1CCN(C(=O)C2Sc3ccccc3NC2=O)CC1` (stereo not drawn) came in with an RP-LC retention time of 746 s.

Compound `COc1cccc(NC(=O)N2CCC(c3nc4ccncc4n3C(C)C)C2)c1` (stereo not drawn) showed an RP-LC retention time of 535 s.

The compound `CCn1ccc(C(=O)N2CCN(c3cc(-c4ccccc4)[nH]n3)CC2)n1` gave an RP-LC retention time of 689 s.

In the case of `Cc1ccc(CNC(=O)C2(C)CN(S(C)(=O)=O)CC(=O)N2c2cccc(Cl)c2)cc1` (stereo not drawn), the RP-LC retention time was 854 s.

For `CC(C)(C)c1csc(-c2csc(S(=O)(=O)N3CCN(c4ccccn4)CC3)c2)n1`, the RP-LC retention time was found to be 974 s.

For `CC(=O)N1CCc2cc(N3CC(C(=O)Nc4ccccc4Br)CC3=O)ccc21` (stereo not drawn), the RP-LC retention time stood at 699 s.

`CN(C)c1cc(-n2cnc(C(=O)NCc3ccc(Cl)cc3)c2)ncn1` yielded an RP-LC retention time of 825 s.

The compound `Cc1ccc(C)c(NC(=O)C2CCN(S(=O)(=O)c3cc(-c4noc(C)n4)cs3)CC2)c1` came in with an RP-LC retention time of 953 s.

Consider `CCOc1cc(=O)n2c(c1C(=O)Nc1cc(Cl)ccc1OC)CCCC2`, for which the RP-LC retention time is 854 s.

For `CCN1c2ccc(Cl)cc2C(=O)NC12CCN(C(=O)NCc1ccccc1)CC2`, the RP-LC retention time is 837 s.

Turning to `COc1cccc(-c2nc(C3CCN(S(=O)(=O)c4cccc(Cl)c4)CC3)no2)c1`, the RP-LC retention time stood at 1160 s.

For `CCC(C(=O)N1CCC(c2cc3n(n2)CCCNC3=O)CC1)c1ccccc1` (stereo not drawn), the RP-LC retention time came to 694 s.

With `CCOc1ccc(CN2C[C@@H](COC)[C@H](c3ccncc3)C2)cc1OC`, the RP-LC retention time turned out to be 560 s.

Consider `COCCc1noc(C2Cc3ccccc3N2C(=O)Nc2cc(OC)cc(OC)c2)n1` (stereo not drawn), for which the RP-LC retention time turned out to be 929 s.

As to `CCn1c(=O)c2ccccc2n(Cc2nc(-c3ccc(Br)cc3)no2)c1=O`, the RP-LC retention time came to 1110 s.

`Cc1cc2c(cc1S(=O)(=O)N1CCN(c3ccccn3)CC1)n(C)c(=O)n2C` yielded an RP-LC retention time of 606 s.

The compound `Cc1cccc(S(=O)(=O)N2C[C@@H]3CN(S(=O)(=O)c4c(C)noc4C)C[C@H](C2)O3)c1` showed an RP-LC retention time of 920 s.

As to `O=c1ccc(-c2nc(-c3ccc(F)cc3)no2)nn1Cc1ccccc1F`, the RP-LC retention time turned out to be 1070 s.

With `Cc1ccc(-c2nnc(Cc3nc(-c4ccncc4)no3)o2)cc1C`, the RP-LC retention time was found to be 850 s.

`CC1CCN(c2cnn(CC(=O)Nc3ccc4c(c3)CCC4)c(=O)c2Cl)CC1`: the RP-LC retention time is 1030 s.

The compound `Cc1nc2ccccc2c(=O)n1Cc1noc(C(=O)NCCC2=CCCCC2)n1` showed an RP-LC retention time of 915 s.

The compound `CC(C)CC(=O)NCCc1csc(-c2ccc(Cl)cc2)n1` registered an RP-LC retention time of 881 s.
